Source: US9518130B2, “Use of ERBB3 inhibitors in the treatment of triple negative and basal-like breast cancers” (Merrimack Pharmaceuticals, Inc., priority 2010, dated 2016)
“And” between values parts separate entries of the source, which are not always exact repeats. Identical values can stand only once.

Tests used:
[1] = system: MDA-MB-231 triple negative breast cancer xenograft model; assay: MM-121 combination with targeted and chemotherapies in vivo (Example 5); details: MM121 300 ug/mouse Q3D, erlotinib 50 mg/kg PO, cetuximab 2 mg/kg Q3D, paclitaxel 10 mg/kg
Procedure: Balb/c nude mice (female, 4-5 weeks old from Charles River lab) are implanted orthotopically with 10×10^6 cells in mammary pad. Tumors are allowed to reach average of 150 mm^3 in size before randomization into 9 groups of 8 mice, containing mice with a similar size distribution of tumors. […] Treatment is continued for 4 weeks. Tumors are measured twice weekly and tumor volume is calculated as p/6×length×width, where the width is the shorter measurement.

[2] = system: MDA-MB-231 triple negative breast cancer xenograft model; assay: Inhibition of tumor growth in vivo by combination treatment with MM-121 and paclitaxel (Example 4); design: species or system Balb/c nude mice; details: for mean tumor volumes: MM121 150 μg/mouse Q3D ip, paclitaxel 5 mg/kg; for effect on tumor growth (in words): sub-optimal doses, FIG. 3
From the text: Treatment is continued for 4 weeks. […] Results:

[3] = system: triple negative human mammary carcinoma xenograft MAXF449; assay: Anti-tumor efficacy of MM-121 monotherapy in MAXF449 xenograft; format: in vivo, NMRI nude mice; details: MM-121 600 μg per mouse IP every three days
Procedure: An analysis of the anti-tumor efficacy and tolerability of MM-121 treatment of tumor-bearing mice is carried out using triple negative human mammary carcinoma xenograft MAXF449 (ONCOTEST GmbH, Frieburg, Germany) in NMRI nude mice. MAXF449 is a Human tumor explant (histologically described upon explant as solid invasive ductal, and poorly defined) established via subcutaneous injection in serial passages in nude mice. The MAXF449 cells used in these experiments have been passaged 22 times. NMRI nude mice are obtained from Taconic farms, Charles River Laboratories International, or Harlan Laboratories. […]
To investigate anti-tumor efficacy in monotherapy, MM-121 or vehicle control (100 μL) is given to tumor-bearing mice at 600 μg per mouse (MM-121 as a 6 mg/mL solution in PBS) by IP injection every three days. […] Efficacy is determined by comparing tumor growth between the antibody-treated mice and the vehicle control mice and is expressed as the experimental to control ratio of median relative tumor volumes (T/C value). […]
Mice are randomized and therapy begins when a sufficient number of individual tumors have grown to a volume of approximately 200 mm3. Tumors are measured (L×W) by digital caliper measurement and the tumor volume is calculated using the formula Pi/6 (W2×L). […]

[4] = system: MDA-MB-231 human triple negative breast cancer cells; assay: MM-121 effects on MDA-MB-231 xenograft (subcutaneous flank or mammary fat pad); format: in vivo, Balb/c nude mice; details: MM-121 600 ug per mouse IP every 3 days; FIG. 2
Procedure: Balb/c nude mice are injected under general anesthesia with 10^7 MDA-MB-231 human triple negative breast cancer cells (ATCC) either subcutaneously in the flank or into the mammary fat pad. Mice with established tumors (i.e., after 7-10 days of tumor growth following injection of cells) are then treated IP with either PBS or MM-121 every 3 days with 600 ug MM-121 per mouse as described in Example 1. Tumor volume is measured twice a week as described in Example 1.

[5] = 1st time point column (day head not given; FIG. 3 starts at 28 days following injection)
[6] = 2nd time point column (day head not given)
[7] = 3rd time point column (day head not given)
[8] = 4th time point column (day head not given)
[9] = 5th time point column (day head not given)
[10] = 6th time point column (day head not given)

Row | Molecule | mean tumor volumes ([1]; Day 28) [mm^3] | mean tumor volumes ([1]; Day 32) [mm^3] | mean tumor volumes ([1]; Day 36) [mm^3] | mean tumor volumes ([1]; Day 39) [mm^3] | mean tumor volumes ([1]; Day 43) [mm^3] | mean tumor volumes ([1]; Day 46) [mm^3] | mean tumor volumes ([1]; Day 49) [mm^3] | mean tumor volumes ([1]; Day 53) [mm^3] | mean tumor volumes [2, 5] [mm^3] | mean tumor volumes [2, 6] [mm^3] | mean tumor volumes [2, 7] [mm^3] | mean tumor volumes [2, 8] [mm^3] | mean tumor volumes [2, 9] [mm^3] | mean tumor volumes [2, 10] [mm^3] | effect on tumor growth (in words) [2] | effect on tumor growth (in words) ([3]; FIG. 1) | TGI (tumor growth inhibition) ([3]; MAXF449 xenograft, NMRI nude mice) | effect on tumor growth (in words) [4]
1 | C#Cc1cccc(Nc2ncnc3cc(OCCOC)c(OCCOC)cc23)c1 [erlotinib] | 172.1 | 182.1 | 216.1 | 273.2 | 252.8 | 245.6 | 303.1 | 327.4 | – | – | – | – | – | – | – | – | – | –
2 | CC(=O)O[C@H]1C(=O)[C@@]2(C)[C@H]([C@H](OC(=O)c3ccccc3)[C@]3(O)C[C@H](OC(=O)[C@H](O)[C@@H](NC(=O)c4ccccc4)c4ccccc4)C(C)=C1C3(C)C)[C@]1(OC(C)=O)CO[C@@H]1C[C@@H]2O [paclitaxel] | 155.2 | 167.0 | 182.4 | 216.6 | 228.1 | 247.0 | 292.6 | 383.5 | 97.9 | 113.5 | 144.6 | 166.2 | 178.8 | 202.2 | inhibited tumor growth | – | – | –
3 | MM-121: anti-ErbB3 monoclonal antibody comprising VH and VL sequences as shown in SEQ ID NOs: 1 and 2 (antibody, listed as Homo sapiens, V domains shown) VH: EVQLLESGGGLVQPGGSLRLSCAASGFTFSHYVMAWVRQAPGKGLEWVSSISSSGGWTLYADSVKGRFTISRDNSKNTLYLQMNSLRAEDTAVYYCTRGLKMATIFDYWGQGTLVTVSS VL: QSALTQPASVSGSPGQSITISCTGTSSDVGSYNVVSWYQQHPGKAPKLIIYEVSQRPSGVSNRFSGSKSGNTASLTISGLQTEDEADYYCCSYAGSSIFVIFGGGTKVTVL | 178.6 | 197.3 | 219.1 | 257.8 | 269.4 | 291.4 | 351.3 | 425.0 | 99.4 | 115.5 | 137.5 | 180.4 | 187.2 | 242.7 | inhibited tumor growth | inhibited or stopped tumor growth, and in some cases reduced tumor size | approximately 200% and 200% | stopped human triple negative breast cancer tumor growth essentially completely
